From patent US10995129B2 (Case Western Reserve University, priority 2011, dated 2021) come the findings set out here.

For test [1], the system named is Normal male Sprague-Dawley rats. Briefly: Hyperinsulinemic-euglycemic clamp. In kind it is in vivo, rat.
Procedure: A primed infusion of glucose was administered followed by a continuous dosage. […] Glucose appearance and disposal was determined by calculating the difference between glucose infused and glucose present in the plasma as determined by glucometer. Plasma levels of plasma nonesterified fatty acids (NEFA) are determined using a colorimeteric assay such as the assay kit available from Fujifilm Wako Diagnostics (Mountain View, Calif.). Phosphorylation relative to basal level was measured using Western blot analysis of samples harvested from liver, gastrocnemius and epididymal white adipose tissue (eWAT), and immunoblotted using anti-phosphotyrosine antibody (Cell Signaling Technologies, Inc., Danvers, Mass., Phospho-IGF-I Receptor β ([MUT]) Rabbit monoclonal antibody #3918). Similarly Akt phosphorylation was similarly tested using Cell Signaling Technology, Inc. (Danvers, Mass.) antibody No. 9271 as primary antibody and horse radish peroxidase (HRP)-linked Anti-rabbit IgG antibody No. 7074 (Cell Signaling Technology, Inc., Danvers, Mass.).
For test [2], the target named is A isoform of the insulin receptor (IR-A) (Homo sapiens, UniProt P06213). Briefly: Affinity of the GluA8, TrpA13, ChaB24 analogue for receptor isoform A. In kind it is binding.
Test [3] deals with B isoform of the insulin receptor (IR-B) (Homo sapiens, UniProt P06213). The test is described as follows: Affinity of the GluA8, TrpA13, ChaB24 analogue for receptor isoform B. In kind it is binding.

For “CHA: insulin analogue with Glu A8, Trp A13 and cyclohexanylalanine B24; SEQ ID NOS: 50 and 51”, the “increase of insulin stimulated whole body glucose disposal (Rd)” value in test [1] (FIG. 16B) is “to a similar degree”. In addition, the “insulin stimulated whole body glucose disposal (Rd)” value in test [1] (FIG. 16B legend) was found to be 21.1 ± 1.4 mg/kg/min. The “insulin receptor tyrosine phosphorylation (IRKpY) in liver, vs KP” value in test [1] (Western blot, FIG. 16D) is “decrease”. For the same substance, in test [1] (Western blot, FIG. 16E), the “IRKpY activation in gastrocnemius muscle, vs KP” value is on record as “to a similar degree”. Also, the “IRKpY activation in epididymal white adipose tissue (eWAT), vs KP” value in test [1] (Western blot, FIG. 16F) is recorded as “to a similar degree”. Also, in test [1] (during clamp), the “GINF (glucose infusion)” value turned out to be 21.1 ± 1.4 mg/kg/min. Besides, the “clamped plasma glucose concentration” value in test [1] (during clamp, KP 24, CHA 40 pmol/kg-min) worked out at 111.1 ± 5.1 mg/dL. The “suppression of endogenous glucose production (EGP)” value in test [1] (hyperinsulinemic conditions, p=0.001) turned out to be 28.2±16.7%. Moreover, in test [1] (rat, in vivo), the “2-deoxyglucose uptake in eWAT” value is 0.72±0.1 mg glucose·kg tissue^−1·min^−1 and the “2-deoxyglucose uptake in gastrocnemius” value is given as 18.6±2.5 mg glucose·kg tissue^−1·min^−1. Moreover, the “lower affinity for the A isoform of the insulin receptor” value in test [2] is “five”. The “lower affinity for the B isoform of the insulin receptor” value in test [3] is listed as 13 fold.
